According to ChEMBL document CHEMBL1201862, “PubChem BioAssay data set” (2004):
“And” between values parts separate entries of the source, which are not always exact repeats. Identical values can stand only once.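 How tested: cells in 96-well plates exposed to compound for 48 hours at five concentrations. GI50 marks 50% less growth.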 The source made the active and inactive calls. No stated cut-off is given here; in the data, active = GI50 up to about 1.1 µM and inactive = higher.

Assays:
Assay in all cases: growth of human tumour cells (NCI), 48 h
DU-145 = tested on: DU-145
EKVX = tested on: EKVX
HT-29 = tested on: HT-29
K562 = tested on: K562
KM12 = tested on: KM12
LOX IMVI = tested on: LOX IMVI
M14 = tested on: M14
MDA-MB-435 = tested on: MDA-MB-435
MDA-N = tested on: MDA-N
NCI-H522 = tested on: NCI-H522
OVCAR-8 = tested on: OVCAR-8
SK-OV-3 = tested on: SK-OV-3
SN12C = tested on: SN12C
SNB-75 = tested on: SNB-75
SW-620 = tested on: SW-620
T47D = tested on: T47D
TK-10 = tested on: TK-10
UO-31 = tested on: UO-31
MOLT-4 = tested on: MOLT-4

| Compound | GI50 (DU-145) | GI50 (EKVX) | GI50 (HT-29) | GI50 (K562) | GI50 (KM12) | GI50 (LOX IMVI) | GI50 (M14) | GI50 (MDA-MB-435) | GI50 (MDA-N) | GI50 (NCI-H522) | GI50 (OVCAR-8) | GI50 (SK-OV-3) | GI50 (SN12C) | GI50 (SNB-75) | GI50 (SW-620) | GI50 (T47D) | GI50 (TK-10) | GI50 (UO-31) | GI50 (MOLT-4) |
| --- | --- | --- | --- | --- | --- | --- | --- | --- | --- | --- | --- | --- | --- | --- | --- | --- | --- | --- | --- |
| CC(C)C(Sc1nc(N)nc2nc[nH]c12)C(=O)O (stereo not given) | > 100 µM (inactive) | > 100 µM (inactive) | > 100 µM (inactive) | > 100 µM (inactive) | > 100 µM (inactive) | > 100 µM (inactive) | > 100 µM (inactive) | > 100 µM (inactive) | > 100 µM (inactive) | > 100 µM (inactive) | > 100 µM (inactive) | > 100 µM (inactive) | > 100 µM (inactive) | > 100 µM (inactive) | > 100 µM (inactive) | > 100 µM (inactive) | > 100 µM (inactive) | > 100 µM (inactive) | – |
| CCC1(CC)C(=O)N(C(=O)c2cc(OC)c(OC)c(OC)c2)N(C(=O)c2cc(OC)c(OC)c(OC)c2)C1=O | > 50 µM (inactive) | > 50 µM (inactive) | > 50 µM (inactive) | > 50 µM (inactive) | > 50 µM (inactive) | > 50 µM (inactive) | > 50 µM (inactive) | > 50 µM (inactive) | > 50 µM (inactive) | > 50 µM (inactive) | > 50 µM (inactive) | > 50 µM (inactive) | 21.8 µM (inactive) | 42.9 µM (inactive) | > 50 µM (inactive) | > 50 µM (inactive) | > 50 µM (inactive) | > 50 µM (inactive) | – |
| COc1ccc2[nH]cc([C@@H]3C4CCC(C4)[C@H]3NCc3cccc(CN[C@H]4C5CCC(C5)[C@@H]4c4c[nH]c5ccc(OC)cc45)c3)c2c1 | 1.67 µM (inactive) and 1.68 µM (inactive) | 1.51 µM (inactive) and 1.52 µM (inactive) | 230 nM (active) and 218 nM (active) | 228 nM (active) and 178 nM (active) | 463 nM (active) and 643 nM (active) | 244 nM (active) and 235 nM (active) | 640 nM (active) and 600 nM (active) | 520 nM (active) and 733 nM (active) | 1.15 µM (inactive) and 933 nM (active) | 1.5 µM (inactive) and 1.17 µM (inactive) | 891 nM (active) and 998 nM (active) | – | 1.1 µM (active) and 1.51 µM (inactive) | 1.26 µM (inactive) and 1.22 µM (inactive) | 238 nM (active) and 384 nM (active) | 1.72 µM (inactive) and 1.99 µM (inactive) | 1.63 µM (inactive) and 1.51 µM (inactive) | 1.36 µM (inactive) and 1.52 µM (inactive) | 577 nM (active) and 467 nM (active) |
| CCOC(=O)c1c(N2CCCC2)[nH]c(=O)c(C(c2ccc(Cl)c([N+](=O)[O-])c2)c2c(O)c(C(=O)OCC)c(N3CCCC3)[nH]c2=O)c1O | 60.8 µM (inactive) | 33.7 µM (inactive) | – | 63.2 µM (inactive) | > 100 µM (inactive) | 19.3 µM (inactive) | 20.8 µM (inactive) | 29.4 µM (inactive) | 24.5 µM (inactive) | 24.5 µM (inactive) | 15.5 µM (inactive) | 85.5 µM (inactive) | 36.2 µM (inactive) | 9.86 µM (inactive) | 33.3 µM (inactive) | 28.1 µM (inactive) | 19.2 µM (inactive) | 24.7 µM (inactive) | 46.6 µM (inactive) |
| COc1ccc(Nc2nn3c(=O)c4c(C)c(C)sc4nc3s2)cc1 | 18.1 µM (inactive) | – | 42.3 µM (inactive) | > 100 µM (inactive) | 44.8 µM (inactive) | 56.9 µM (inactive) | 61.1 µM (inactive) | 34.7 µM (inactive) | 45.6 µM (inactive) | 25.5 µM (inactive) | 49.1 µM (inactive) | 26.6 µM (inactive) | 33.5 µM (inactive) | 22.7 µM (inactive) | 55.7 µM (inactive) | 25.7 µM (inactive) | 26.8 µM (inactive) | 18 µM (inactive) | 43.2 µM (inactive) |
| Cc1cc(S(=O)(=O)O)ccc1/N=N/c1c(O)ccc2ccccc12 | > 100 µM (inactive) | > 100 µM (inactive) | 82.2 µM (inactive) | > 100 µM (inactive) | > 100 µM (inactive) | – | > 100 µM (inactive) | > 100 µM (inactive) | > 100 µM (inactive) | > 100 µM (inactive) | > 100 µM (inactive) | > 100 µM (inactive) | > 100 µM (inactive) | > 100 µM (inactive) | > 100 µM (inactive) | > 100 µM (inactive) | > 100 µM (inactive) | > 100 µM (inactive) | > 100 µM (inactive) |
| COc1ccc(-c2nnc3n(Cc4ccccc4)c4ccccc4n3c2=O)cc1 | 59.4 µM (inactive) | 29.8 µM (inactive) | > 100 µM (inactive) | – | > 100 µM (inactive) | 49.9 µM (inactive) | 77.6 µM (inactive) | 4.76 µM (inactive) | > 100 µM (inactive) | 17.3 µM (inactive) | 30.9 µM (inactive) | – | 55 µM (inactive) | 11.9 µM (inactive) | > 100 µM (inactive) | 45.6 µM (inactive) | 21.9 µM (inactive) | 39.9 µM (inactive) | > 100 µM (inactive) |
